Data taken from EP0572271B1, “Acyl lactylates as antimicrobial actives” (UNILEVER PLC, priority 1992, dated 1993).

What was measured:
[1] = system: Aspergillus niger & Penicillium notatum; test: Mould challenge test: mould spore suspension inoculated into preserved compositions; format: cell-based; conditions: Example 2: oil-in-water emulsion, pH 5.5, material usually 1.0 wt%; for Mould challenge 1%: 1% by volume spore suspension; for Mould challenge 10%: 10% by volume spore suspension
Description: (§1) This test involved incubating under standard conditions test compositions which have been inoculated with a selected bacterium, yeast or a mixture of moulds. […] Accordingly, the higher the number of "challenges", the better is the preservative substance in preventing or at least delaying microbial spoilage.
(§2) The microorganisms selected for this test were: • i) Pseudomonas cepacia - a gram-negative bacterium, • ii ) Aspergillus niger & Penicillium notatum, - a mixture of moulds.
The above procedure applies to the inoculation of the bacterium. For testing with the mixed culture of moulds this procedure was varied slightly, as follows:
Two samples of each test composition (9.9ml and 9ml) were transferred to sterile flasks and 0.1ml or 1ml, (i.e. 1% or 10% by volume) of a mould spore suspension (approximately 10^8 spores per ml) was introduced into the respective samples and thoroughly mixed. The inoculated samples were incubated at 28°C for up to 28 days with 1ml samples being aseptically removed for the total viable count as outlines above using Sabourand's dextrose agar after 1, 7, and 28 days.
A composition is classed as "low risk" if mould spores are eliminated in 1 to 2 days. "Medium risk" compositions take 7 to 14 days to eliminate the spores and "high risk" compositions still have surviving mould spores after 14 days incubation.

Pseudomonas cepacia = test: Challenge test with repeated bacterial inoculation of preserved compositions; format: cell-based
Description: as §1, §2
For the bacterium the method of testing was as follows: • i) Introduce aseptically 99ml of test composition into a 250ml flask and add 1ml of inoculum of one of the test organisms (see above), to provide a dilution of 10^6 cells/ml in the composition. • ii) mix and incubate at 28°C for 24 hours. • iii) remove 1ml of incubated composition from the flask and add to it as diluent 9ml of an aqueous solution containing 0.1% by weight peptone and 2% by weight Tween 80, and mix thoroughly. • iv) place 1ml of diluted sample into a petri dish and add warm, molten agar (40°C) and mix to distribute culture uniformly and allow to set. • v) incubate plates for 3 days at 28°C and then count colonies and note log reduction of count (due to the presence of the preservative in the original culture composition).
The inoculation of the organisms originally introduced into each composition is then repeated at 24 hour intervals, following removal of the first total viable count sample, the plating out and counting procedure being repeated on each occasion. The test is terminated when the samples show a contamination level greater than 10^2 counts per ml on 2 consecutive days. This point is regarded as the failure point for the composition under test.
The greater the number of inoculations of contaminant organisms before this level of contamination is established in the composition, the better the preservative system.

aspergillus niger = conditions: statement in words on prior art US patent 3,275,503; cited from earlier work
[2] = system: several types of bacteria; conditions: statement in words on prior art US patent 3,275,503; cited from earlier work
[3] = Example 2: oil-in-water emulsion, pH 5.5, material usually 1.0 wt%
[4] = Example 3: shampoo formulation, pH 6.0, material added 1 wt%

| Molecule | Mould challenge 1% [1] | Mould challenge 10% [1] | No of inoculations to failure (Bacteria) (Pseudomonas cepacia; [3]) | No of inoculations to failure (Bacteria) (Pseudomonas cepacia; [4]) | efficacy to inhibit the growth of moulds, like aspergillus niger (aspergillus niger) | effectiveness against several types of bacteria [2] |
| --- | --- | --- | --- | --- | --- | --- |
| CC(C)=CCCC(C)=CCCC(C)=CCO [Farnesol] | ++++ | ++++ | 1 | – | – | – |
| CCCCCC(=O)OC(C)C(=O)O (stereo not drawn) [Hexanoyl lactylate] | + | + | >21 | >21 | – | – |
| CCCCCCCCCCCC(=O)O [Lauric acid] | ++++ | ++++ | 1 | 1 | – | – |
| CCCCCCCCCCCC(=O)OCC(O)CO (stereo not drawn) [Monolaurin] | ++++ | ++++ | 1 | 1 | – | – |
| CCCCCCCCCC(=O)OC(C)C(=O)OC(C)C(=O)[O-].CCCCCCCCCC(=O)OC(C)C(=O)OC(C)C(=O)[O-].[Ca+2] (stereo not drawn) [calcium capryl-2 lactylate] | – | – | – | – | leaves much to be desired | very effective |
| Octanoyl lactylate | + | ++++ | 20 | 2 | – | – |
